The subject of data set [1] is rat hepatocytes. The settings on record: lamivudine triphosphate used as a reference; cited from earlier work.
Data set [2] concerns human liver microsome (HLM). The experiment in a line: Human liver microsomal metabolism in vitro (release of 2FM-UMP). The class given is in vitro ADME. As to conditions: formation of 2FM-UMP, versus other candidate compounds of Table 3. The text has this: The human liver microsome (HLM) used in this test was purchased from In Vitro Technologies (IVT) with a batch number of SSP X008070, which was a mixed liver microsome extracted from the liver tissues of 150 donors. The product description recorded that the metabolic activity of CYP3A4 in this batch of the human liver microsomes was 1.734 nmol/mg/min (the rate at which testosterone is metabolized to produce 6-β testosterone). The test compound was synthesized by Zhejiang Plato Pharmaceutical Technology Co., Ltd., and dissolved in methanol to prepare a storage solution having a concentration of 25 mM. The enzymatic reaction was carried out in a 100 mM KH2PO4 buffer solution (pH 7.4) at a test compound concentration of 25 μM and a human liver microsome concentration of 2 mg/ml. The reaction was initiated by the addition of NADPH (final concentration 2 mM). After reacting for 5 min in a constant temperature shaking water bath, the reaction was terminated by the rapid addition of methanol at a volume of 1.5 times that of the reaction mixture. The reaction solution was centrifuged at a maximum speed of 13,600 rpm using an Eppendorf bench top centrifuge for 20 min, and the supernatant was taken. And then the supernatant was dried by a nitrogen blower and redissolved in mobile phase A (aqueous solution containing 5 mM ammonium acetate and 0.05% formic acid v/v). The resulting sample was analyzed by LC-MS/MS (Waters, Acquity UPLC HSS T3 column).
Background: Liver microsomes are vesicles of endoplasmic reticulum, rich in cytochrome P450 enzymes.

Data set [3] in a line: Compound tissue distribution experiment in rats (metabolites 2FM-UR, 2FM-UMP, 2FM-UTP by LC-MS/MS). In kind it is in vivo, Sprague Dawley rats. As to conditions: rat; for 2FM-UTP released in liver versus corresponding time points of sofosbuvir: 30 mg/Kg oral, p<0.01, FIG. 2; for 2FM-UMP released in the heart versus sofosbuvir: p<0.01, FIGS. 3A-3B; for Active molecule 2FM-UTP in the blood and heart: lower limit of quantitation 5 ng/mL or 5 ng/g. As for the experimental part: Sprague Dawley rats, male, weighing 180-300 g, were provided by Shanghai Xipuer-Beikai Experimental Animal Co., Ltd. Male animals were allowed to adapt to the environment for more than 3 days, and fasted for 12 hours before the experiment, but were free to drink water. PA2020, PA2024, PA2029 and sofosbuvir were respectively dissolved in a mixed solvent of Cremophor EL, ethanol and normal saline at a volume ratio of 10:10:80 to prepare corresponding solutions. Before the administration, the animals' weight was checked to determine whether the rats met the experimental requirements. Twelve rats were selected for grouping, 2 rats in each group, and 30 mg/kg of a drug solution was administered intragastrically to the rats. Samples were respectively collected at 0.5 h, 1 h, 3 h, 6 h, 12 h and 24 h after the administration. After the rats were euthanized with carbon dioxide, the blood was collected from the heart and stored in heparin anticoagulation tubes. The blood was centrifuged at 6,000 rpm and 4° C. for 5 min, and the supernatant plasma was taken and stored in dry ice. The kidney, liver and heart of the rats were collected and rinsed with normal saline pre-cooled at 4° C. and stored in dry ice after the water was drained. After the experiment, the samples were stored in a −80° C. refrigerator.
Due to the difference in polarity, 2FM-UR, 2FM-UMP and 2FM-UTP were separated and detected using different methods, so that the used LC-triple quadrupole mass spectrometry detectors, the pretreatment conditions, chromatographic and mass spectrometric conditions varied among these compounds.
In the ice bath, 50 μL of plasma was first mixed with 50 μL of internal standard solution (10% trichloroacetic acid solution of tenofovir at 500 ng/mL). After centrifugation at 13,000 rpm and 4° C. for 10 min, 20 μL of the supernatant was mixed with 180 μL of water, and 5 μL of the resulting solution was injected and analyzed by LC-MS/MS.
The kidney, liver and heart tissue were mixed with a buffer in a volume ratio of 1:5 and fully disrupted in the ice bath. 20 μL of the tissue homogenate was mixed with 20 μL of the internal standard solution (500 ng/mL of tenofovir in 10% trichloroacetic acid solution). After centrifugation at 13,000 rpm for 10 min at 4° C., 20 μL of the supernatant was mixed with 180 μL of water, and 5 μL of the resulting solution was injected and analyzed by LC-MS/MS.
LC-MS/MS-AJ (Triple Quad 5500, AB SCIEX) was used for sample analysis. Column: Acquity UPLC HSS T3 (2.1×50 mm, […]); column temperature: 40° C.; flow rate: 0.5 mL/min. Mobile phase A: 0.1% aqueous formic acid, mobile phase B: acetonitrile solution. Mass spectrometry conditions corresponding to the internal standard: electrospray ionization (ESI) positive ion mode, multiple reaction monitoring (MRM) monitoring ion pair m/z: 288/176 (tenofovir), 261/113 (2FM-UR); the temperature was 500° C.; the scanning time was 0.03 s; the collision energy was 15V.
In the ice bath, 30 μL of plasma was first mixed with 30 μL of internal standard solution (5% trichloroacetic acid solution of 100 ng/mL tolbutamide). After centrifugation at 13,000 rpm for 10 min at 4° C., 40 μL of the supernatant was mixed with 80 μL of water, and 5 μL of the injection was analyzed.
Kidney, liver, heart tissue: in the ice bath, tissue and 5 volumes of homogenization buffer of organ tissues (1.75 mL of methanol, 5 μL of 50% KOH solution and 0.75 mL of 268 mM EDTA solution, pH=8) were fully disrupted and mixed. 60 μL of tissue homogenate was mixed with 60 μl of internal standard solution (5% trichloroacetic acid solution of 100 ng/mL tolbutamide). After centrifugation at 13,000 rpm for 10 minutes at 4° C., 40 μL of the supernatant was mixed with 80 μL of water, and 5 μL of the injection was analyzed.
LC-MS/MS-AJ (Triple Quad 5500, AB SCIEX) was used for sample analysis. Column: ACE 3 AQ (2.1×50 mm); column temperature: 55° C.; flow rate: 0.45 mL/min. […]

Setting [4] is: 30 mg/kg intragastric, within 24 h.
The mark [5] stands for this setting: 30 mg/kg intragastric, within 24 h, plasma.
[6] abbreviates: same dose (30 mg/kg), plasma, relative to sofosbuvir.

For the molecule `CCC(=O)O[C@@H]1[C@@H](COP2(=O)OCC[C@H](c3cccc(Cl)c3)O2)O[C@@H](n2ccc(=O)[nH]c2=O)[C@]1(C)F` (stereo partly drawn), the “Corresponding active triphosphate compound produced in rat hepatocytes” value in data set [1] was 87.8 nmol/g.
On to `C[C@@]1(F)[C@H](O)[C@@H](COP2(=O)OCC[C@H](c3cc(F)cc(Cl)c3)O2)O[C@H]1n1ccc(=O)[nH]c1=O` (stereo partly drawn) [PA2020], for which the “Transformation rate relative to other candidate compounds” value in data set [2] is listed as “almost more than twice”. Also, in data set [3], the “2FM-UTP released in liver versus corresponding time points of sofosbuvir” value is reported as “significantly higher”. Besides, in data set [3] (setting [4]), the “Exposure amount of 2FM-UMP in liver (AUC0-t)” value was 102822 ng·h/g and the “Exposure amount of 2FM-UTP in liver (AUC0-t)” value (shortened to “Exposure amount of 2FM-UTP”) was found to be 26682 ng·h/g. For the same molecule, in data set [3] (setting [5]), the “Exposure amount of 2FM-UMP in plasma (AUC0-t)” value was 439 ng·h/g. Also, the “2FM-UMP released in the heart versus sofosbuvir” value in data set [3] (30 mg/kg, heart) was “less”. Also, the “Active molecule 2FM-UTP in the blood and heart” value (“Active molecule 2FM-UTP” for short) in data set [3] (30 mg/kg) is “could not be detected”.
In the case of `C[C@@]1(F)[C@H](O)[C@@H](COP2(=O)OCC[C@H](c3cc(Cl)cc(Cl)c3)O2)O[C@H]1n1ccc(=O)[nH]c1=O` (stereo partly drawn) [PA2024], the “Transformation rate relative to other candidate compounds” value in data set [2] is reported as “almost more than twice”. Also, the “2FM-UTP released in liver versus corresponding time points of sofosbuvir” value in data set [3] is reported as “significantly higher”. In data set [3] (setting [4]), the “Exposure amount of 2FM-UMP in liver (AUC0-t)” value is 65242 ng·h/g and the “Exposure amount of 2FM-UTP” value came out at 9591 ng·h/g. Further, the “Exposure amount of 2FM-UMP in plasma (AUC0-t)” value in data set [3] (setting [5]) worked out at 105 ng·h/g. In data set [3] (30 mg/kg, heart), the “2FM-UMP released in the heart versus sofosbuvir” value was “less”. Also, the “Active molecule 2FM-UTP” value in data set [3] (30 mg/kg) is given as “could not be detected”.
As for `C[C@@]1(F)[C@H](O)[C@@H](COP2(=O)OCC[C@H](c3cc(Cl)ccc3F)O2)O[C@H]1n1ccc(=O)[nH]c1=O` (stereo partly drawn) [PA2029], the “Transformation rate relative to other candidate compounds” value in data set [2] is reported as “almost more than twice”. The “2FM-UTP released in liver versus corresponding time points of sofosbuvir” value in data set [3] is recorded as “significantly higher”. Also, in data set [3] (setting [4]), the “Exposure amount of 2FM-UMP in liver (AUC0-t)” value was determined as 110339 ng·h/g and the “Exposure amount of 2FM-UTP” value is 11820 ng·h/g. Moreover, the “Exposure amount of 2FM-UMP in plasma (AUC0-t)” value in data set [3] (setting [5]) came to 1451 ng·h/g. Also, the “2FM-UMP released in the heart versus sofosbuvir” value in data set [3] (30 mg/kg, heart) is “less”. Besides, in data set [3] (30 mg/kg, heart, p<0.01, FIGS. 4A-4B), the “2FM-UR released in the heart versus equivalent dose of sofosbuvir” value is on record as “less”. Further, the “Active molecule 2FM-UTP” value in data set [3] (30 mg/kg) is listed as “could not be detected”. In data set [3] (setting [6]), the “2FM-UMP concentration in plasma as fraction of sofosbuvir” value was “¼” and the “2FM-UR concentration in plasma relative to sofosbuvir” value is given as “approximately half”.
Take `CC(C)OC(=O)[C@H](C)N[P@](=O)(OC[C@H]1O[C@@H](n2ccc(=O)[nH]c2=O)[C@](C)(F)[C@@H]1O)Oc1ccccc1` [SFB, sofosbuvir, reference compound]: the “Exposure amount of 2FM-UMP in heart (AUC0-t)” value in data set [3] (30 mg/kg intragastric, within 24 h, heart, N.D. = below 5 ng/g or 5 ng/mL) was found to be 417 ng·h/g. Further, in data set [3] (setting [4]), the “Exposure amount of 2FM-UMP in liver (AUC0-t)” value is 27128 ng·h/g and the “Exposure amount of 2FM-UTP” value turned out to be 2691 ng·h/g. The “Exposure amount of 2FM-UMP in plasma (AUC0-t)” value in data set [3] (setting [5]) came out at 5680 ng·h/g. Also, the “Active molecule 2FM-UTP” value in data set [3] (30 mg/kg) was “could not be detected”.
